# Laboratory results published in US8946438B2, “Benzamides, production thereof, and use thereof as medicaments” (Boehringer Ingelheim International GmbH, priority 2008, dated 2015).
# Target: p38 MAP-kinase (Homo sapiens, UniProt Q16539)
# Test: Enzymatic assay: inhibition of p38 MAP-kinase (phosphorylation of GST-tagged ATF2, chemoluminescence bead readout)
# Type: biochemical
# Settings: inhibitor 1 μM; activated p38 MAP-kinase 1 nM; 4 h preincubation; ATP 100 μM; ATF2 10 nM; read-out: % inhibitory effect at 1 μM
# How it was run: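 Activated human p38 MAP-kinase (1 nM) preincubated 4 h at ambient temperature with compound at 1 μM in HEPES pH 7, MgCl2, DTT, Tween20. Then reacted 1 h with GST-ATF2 (10 nM) and ATP (100 μM). Phospho-ATF2 read by bead chemoluminescence at 520-620 nm, given as % inhibition at 1 μM versus kinase-free background.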
# p38 MAP-kinase, sequence (Q16539 whole entry): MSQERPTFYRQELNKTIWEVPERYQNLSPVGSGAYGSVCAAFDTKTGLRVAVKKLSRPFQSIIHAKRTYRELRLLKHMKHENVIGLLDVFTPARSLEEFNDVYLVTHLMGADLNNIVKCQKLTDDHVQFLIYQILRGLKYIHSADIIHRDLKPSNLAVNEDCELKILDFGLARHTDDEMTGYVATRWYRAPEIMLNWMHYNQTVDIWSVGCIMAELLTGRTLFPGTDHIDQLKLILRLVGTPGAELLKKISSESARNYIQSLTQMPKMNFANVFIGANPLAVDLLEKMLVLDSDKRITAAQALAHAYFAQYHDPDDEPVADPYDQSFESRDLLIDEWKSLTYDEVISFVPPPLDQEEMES
row,SMILES,inhibition at 1 µM [%]
1,"COc1c(NC(=O)c2ccc(C)c(Oc3ccnc(CC4CCNCC4)c3)c2)cc(C(C)(C)C)cc1S(C)(=O)=O [11(3), N-(5-tert-butyl-3-methanesulphonyl-2-methoxy-phenyl)-4-methyl-3-(2-piperidin-4-ylmethyl-pyridin-4-yloxy)-benzamide]",99.5
2,"COc1c(NC(=O)CC(C)C)cc(C(C)(C)C)cc1NC(=O)c1ccc(C)c(Oc2ccnc(CC3CCNCC3)c2)c1 [11(4), N-[5-tert-butyl-2-methoxy-3-(3-methyl-butyrylamino)-phenyl]-4-methyl-3-(2-piperidin-4-ylmethyl-pyridin-4-yloxy)-benzamide]",95.1
3,"COc1c(NC(=O)c2ccc(Cl)c(Oc3cc(CN4CCN(C)CC4)ncn3)c2)cc(C(C)(C)C)cc1NS(C)(=O)=O [12(1), N-(5-tert-butyl-3-methanesulphonylamino-2-methoxy-phenyl)-4-chloro-3-[6-(4-methyl-piperazin-1-ylmethyl)-pyrimidin-4-yloxy]-benzamide]",99.4
4,"COc1c(NC(=O)c2ccc(Cl)c(Oc3cc(CC4CCN(C)CC4)ncn3)c2)cc(C(C)(C)C)cc1NS(C)(=O)=O [12(2), N-(5-tert-butyl-3-methanesulphonylamino-2-methoxy-phenyl)-4-chloro-3-[6-(1-methyl-piperidin-4-ylmethyl)-pyrimidin-4-yloxy]-benzamide]",98.7
5,"COc1c(NC(=O)c2ccc(Cl)c(Oc3ccnc(CC4CCN(C)CC4)n3)c2)cc(C(C)(C)C)cc1NS(C)(=O)=O [12(3), N-(5-tert-butyl-3-methanesulphonylamino-2-methoxy-phenyl)-4-chloro-3-[2-(1-methyl-piperidin-4-ylmethyl)-pyrimidin-4-yloxy]-benzamide]",99.6
6,"COc1c(NC(=O)c2ccc(Cl)c(Oc3ccnc(CN4CCN(C)CC4)c3)c2)cc(C(C)(C)C)cc1NS(C)(=O)=O [12(4), N-(5-tert-butyl-3-methanesulphonylamino-2-methoxy-phenyl)-4-chloro-3-[2-(4-methyl-piperazin-1-ylmethyl)-pyridin-4-yloxy]-benzamide]",99.3
7,"COc1c(NC(=O)c2ccc(Cl)c(Oc3ccnc(CC4CCN(C)CC4)c3)c2)cc(C(C)(C)C)cc1NS(C)(=O)=O [12(5), N-(5-tert-butyl-3-methanesulphonylamino-2-methoxy-phenyl)-4-chloro-3-[2-(1-methyl-piperidin-4-ylmethyl)-pyridin-4-yloxy]-benzamide]",99.5
8,"COc1c(NC(=O)c2ccc(C)c(Oc3ccnc(CC4CCCN(C)CC4)n3)c2)cc(C(C)(C)C)cc1NS(C)(=O)=O (centres unmarked) [12(6), N-(5-tert-butyl-3-methanesulphonylamino-2-methoxy-phenyl)-4-methyl-3-[2-(1-methyl-azepan-4-ylmethyl)-pyrimidin-4-yloxy]-benzamide]",99.6
9,"COc1c(NC(=O)c2ccc(C)c(Oc3cc(CC4CCCN(C)CC4)ncn3)c2)cc(C(C)(C)C)cc1NS(C)(=O)=O (centres unmarked) [12(7), N-(5-tert-butyl-3-methanesulphonylamino-2-methoxy-phenyl)-4-methyl-3-[6-(1-methyl-azepan-4-ylmethyl)-pyrimidin-4-yloxy]-benzamide]",99.8
10,"COc1c(NC(=O)c2ccc(C)c(Oc3ccnc(CN4CCN(C)CC4)n3)c2)cc(C(C)(C)C)cc1[S+](C)[O-] (centres unmarked) [13(1), N-(5-tert-butyl-3-methanesulphinyl-2-methoxy-phenyl)-4-methyl-3-[2-(4-methyl-piperazin-1-ylmethyl)-pyrimidin-4-yloxy]-benzamide]",97
11,"COc1c(NC(=O)c2ccc(C)c(Oc3cc[n+]([O-])cc3)c2)cc(C(C)(C)C)cc1NS(C)(=O)=O [Example 1, N-(5-tert-butyl-3-methanesulphonylamino-2-methoxy-phenyl)-4-methyl-3-(1-oxy-pyridin-4-yloxy)-benzamide]",90.8
12,"COc1c(NC(=O)c2ccc(C)c(Oc3ccncc3)c2)cc(C(C)(C)C)cc1NS(C)(=O)=O [Example 2, N-(5-tert-butyl-3-methanesulphonylamino-2-methoxy-phenyl)-4-methyl-3-(pyridin-4-yloxy)-benzamide]",97.7
13,"CNc1nccc(Oc2cc(C(=O)Nc3cc(C(C)(C)C)cc(NS(C)(=O)=O)c3OC)ccc2C)n1 [Example 3, N-(5-tert-butyl-3-methanesulphonylamino-2-methoxy-phenyl)-4-methyl-3-(2-methylamino-pyrimidin-4-yloxy)-benzamide]",98.1
14,"COc1c(NC(=O)c2ccc(C)c(Oc3ccnc(NCCN4CCCC4)n3)c2)cc(C(C)(C)C)cc1NS(C)(=O)=O [Example 4, N-(5-tert-butyl-3-methanesulphonylamino-2-methoxy-phenyl)-4-methyl-3-[2-(2-pyrrolidin-1-yl-ethylamino)-pyrimidin-4-yloxy]-benzamide]",97.7
15,"COc1c(NC(=O)c2ccc(C)c(Oc3ccnc(N4CCNCC4)n3)c2)cc(C(C)(C)C)cc1NS(C)(=O)=O [Example 5, N-(5-tert-butyl-3-methanesulphonylamino-2-methoxy-phenyl)-4-methyl-3-(2-piperazin-1-yl-pyrimidin-4-yloxy)-benzamide x trifluoroacetic acid]",99

# Results, then the compound that gave them:
row,inhibition at 1 µM [%],SMILES
1,94.4,"COc1c(NC(=O)c2cc(C)cc(Oc3ccncc3)c2)cc(C(C)(C)C)cc1NS(C)(=O)=O [Example 6, N-(5-tert-butyl-3-methanesulphonylamino-2-methoxy-phenyl)-3-methyl-5-(pyridin-4-yloxy)-benzamide]"
2,95.6,"CNC(=O)c1cc(Oc2cc(C(=O)Nc3cc(C(C)(C)C)cc(NS(C)(=O)=O)c3OC)ccc2C)ncn1 [Example 7, 6-[5-(5-tert-butyl-3-methanesulphonylamino-2-methoxy-phenylaminocarbonyl)-2-methyl-phenoxy]-pyrimidin-4-carboxylic acid-methylamide]"
3,95,"COc1c(NC(=O)c2ccc(C)c(Oc3cc(CN4CCOCC4)ncn3)c2)cc(C(C)(C)C)cc1NS(C)(=O)=O [Example 8, N-(5-tert-butyl-3-methanesulphonylamino-2-methoxy-phenyl)-4-methyl-3-(6-morpholin-4-ylmethyl-pyrimidin-4-yloxy)-benzamide]"
4,98.4,"COc1c(NC(=O)c2ccc(C)c(Oc3cc(CC4CCN(C)CC4)ncn3)c2)cc(C(C)(C)C)cc1NS(C)(=O)=O [Example 9, N-(5-tert-butyl-3-methanesulphonylamino-2-methoxy-phenyl)-4-methyl-3-[6-(1-methyl-piperidin-4-ylmethyl)-pyrimidin-4-yloxy]-benzamide]"
5,99.6,"COc1c(NC(=O)c2ccc(Cl)c(Oc3ccnc(NC4CCN(C)CC4)c3)c2)cc(C(C)(C)C)cc1NS(C)(=O)=O [Example 10, N-(5-tert-butyl-3-methanesulphonylamino-2-methoxy-phenyl)-4-chloro-3-[2-(1-methyl-piperidin-4-ylamino)-pyridin-4-yloxy]-benzamide]"
6,99.2,"COc1c(NC(=O)c2ccc(Cl)c(Oc3cc(NC4CCNCC4)ncn3)c2)cc(C(C)(C)C)cc1NS(C)(=O)=O [Example 11, N-(5-tert-butyl-3-methanesulphonylamino-2-methoxy-phenyl)-4-chloro-3-[6-(piperidin-4-ylamino)-pyrimidin-4-yloxy]-benzamide]"
7,97.5,"COc1c(NC(=O)c2ccc(C)c(Oc3ccnc(CC4CCCN(C)CC4)c3)c2)cc(C(C)(C)C)cc1NS(C)(=O)=O (centres unmarked) [Example 12, N-(5-tert-butyl-3-methanesulphonylamino-2-methoxy-phenyl)-4-methyl-3-[2-(1-methyl-azepan-4-ylmethyl)-pyridin-4-yloxy]-benzamide]"
8,98.2,"COc1c(CO)cc(C(C)(C)C)cc1NC(=O)c1ccc(C)c(Oc2ccnc(CN3CCN(C)CC3)n2)c1 [Example 13, N-(5-tert-butyl-3-hydroxymethyl-2-methoxy-phenyl)-4-methyl-3-[2-(4-methyl-piperazin-1-ylmethyl)-pyrimidin-4-yloxy]-benzamide]"
